Measured values as given in patent US9296741B2, “Bromodomain inhibitors” (priority 2012, dated 2016).

How the values were obtained:
[1] = Mouse liver microsome stability assay; format: in vitro ADME; conditions: male, CD1, mouse, microsomes, pH 7.4
[2] = Rat liver microsome stability assay; format: in vitro ADME; conditions: rat liver microsomes (male Sprague-Dawley), 0.5 μM test compound, pH 7.4, 37° C.; for half-life at 0.5 μM: 0.25 mg/mL microsomal protein, read-out: Stability in rat liver microsomes (t1/2 in minutes)
[3] = molecular target: human BRD4 second bromodomain (BDII_E352-M457) (Homo sapiens (Human), UniProt O60885); experiment: TR-FRET bromodomain binding assay, BRD4 second bromodomain
[4] = molecular target: human BRD4 first bromodomain (BDI_K57-E168) (Homo sapiens (Human), UniProt O60885); experiment: TR-FRET bromodomain binding assay, BRD4 first bromodomain
[5] = Human liver microsome stability assay; format: in vitro ADME; conditions: both sexes, human, microsomes, pH 7.4
[6] = tested on: breast cancer cell line MX-1; experiment: MX-1 cell line proliferation assay; format: cell-based, human; conditions: Homo sapiens, MX1, 72 h; MX-1 cells, 3-day proliferation, Cell Titer Glo; read-out: Cellular proliferation: EC50

Cn1cc(-c2cc(CC(=O)O)ccc2OCc2ccccc2)c2cc[nH]c2c1=O [Example 35, [4-(benzyloxy)-3-(6-methyl-7-oxo-6,7-dihydro-1H-pyrrolo[2,3-c]pyridin-4-yl)phenyl]acetic acid]
half-life at 0.5 μM [1]: 42 min
half-life at 0.5 μM [2]: > 120 min
Ki [3]: 1140 nM
Ki [4]: 661 nM
half-life at 0.5 μM [5]: 37 min

Cn1cc(-c2ccccc2C(=O)N2CCOCC2)c2cc[nH]c2c1=O [Example 61, 6-methyl-4-[2-(morpholin-4-ylcarbonyl)phenyl]-1,6-dihydro-7H-pyrrolo[2,3-c]pyridin-7-one]
half-life at 0.5 μM [1]: > 120 min
half-life at 0.5 μM [2]: > 120 min
Ki [3]: > 22200 nM
Ki [4]: > 13000 nM
half-life at 0.5 μM [5]: > 120 min

Cn1cc(-c2cc(C(=O)Nc3ccc4cn[nH]c4c3)ccc2Oc2ccc(F)cc2F)c2cc[nH]c2c1=O [Example 118, 4-(2,4-difluorophenoxy)-N-(1H-indazol-6-yl)-3-(6-methyl-7-oxo-6,7-dihydro-1H-pyrrolo[2,3-c]pyridin-4-yl)benzamide]
half-life at 0.5 μM [1]: 18 min
half-life at 0.5 μM [2]: 34 min
half-life at 0.5 μM [5]: 81 min

Cn1cc(-c2cc(C(=O)N3CCN(C(=O)N4CCCC4)CC3)ccc2Oc2ccc(F)cc2F)c2cc[nH]c2c1=O [Example 119, 4-[2-(2,4-difluorophenoxy)-5-{[4-(pyrrolidin-1-ylcarbonyl)piperazin-1-yl]carbonyl}phenyl]-6-methyl-1,6-dihydro-7H-pyrrolo[2,3-c]pyridin-7-one]
half-life at 0.5 μM [1]: 2 min
half-life at 0.5 μM [2]: 24 min
Ki [3]: 22.5 nM
Ki [4]: 44.4 nM
half-life at 0.5 μM [5]: 14 min

CN(C)c1ccc(NC(=O)c2ccc(Oc3ccc(F)cc3F)c(-c3cn(C)c(=O)c4[nH]ccc34)c2)cc1 [Example 120, 4-(2,4-difluorophenoxy)-N-[4-(dimethylamino)phenyl]-3-(6-methyl-7-oxo-6,7-dihydro-1H-pyrrolo[2,3-c]pyridin-4-yl)benzamide]
half-life at 0.5 μM [1]: 10 min
half-life at 0.5 μM [2]: 12 min
Ki [3]: 304 nM
Ki [4]: 190 nM
half-life at 0.5 μM [5]: 19 min

Cn1cc(-c2cc(C(=O)NCCN3CCCC3=O)ccc2Oc2ccc(F)cc2F)c2cc[nH]c2c1=O [Example 122, 4-(2,4-difluorophenoxy)-3-(6-methyl-7-oxo-6,7-dihydro-1H-pyrrolo[2,3-c]pyridin-4-yl)-N-[2-(2-oxopyrrolidin-1-yl)ethyl]benzamide]
half-life at 0.5 μM [1]: 2 min
half-life at 0.5 μM [2]: 16 min
half-life at 0.5 μM [5]: 8 min

Cn1cc(-c2cc(C(=O)NCc3ccc(F)c(F)c3)ccc2Oc2ccc(F)cc2F)c2cc[nH]c2c1=O [Example 125, N-(3,4-difluorobenzyl)-4-(2,4-difluorophenoxy)-3-(6-methyl-7-oxo-6,7-dihydro-1H-pyrrolo[2,3-c]pyridin-4-yl)benzamide]
half-life at 0.5 μM [1]: 12 min
half-life at 0.5 μM [2]: 23 min
Ki [3]: 274 nM
Ki [4]: 215 nM
half-life at 0.5 μM [5]: 45 min

Cn1cc(-c2cc(C(=O)NCc3ccc(OC(F)(F)F)cc3)ccc2Oc2ccc(F)cc2F)c2cc[nH]c2c1=O [Example 126, 4-(2,4-difluorophenoxy)-3-(6-methyl-7-oxo-6,7-dihydro-1H-pyrrolo[2,3-c]pyridin-4-yl)-N-[4-(trifluoromethoxy)benzyl]benzamide]
half-life at 0.5 μM [1]: 25 min
half-life at 0.5 μM [2]: 21 min
Ki [3]: 768 nM
Ki [4]: 2000 nM
half-life at 0.5 μM [5]: 100 min

CN(C)C(=O)CN1CCN(C(=O)c2ccc(Oc3ccc(F)cc3F)c(-c3cn(C)c(=O)c4[nH]ccc34)c2)CC1 [Example 127, 2-{4-[4-(2,4-difluorophenoxy)-3-(6-methyl-7-oxo-6,7-dihydro-1H-pyrrolo[2,3-c]pyridin-4-yl)benzoyl]piperazin-1-yl}-N,N-dimethylacetamide]
half-life at 0.5 μM [1]: 20 min
half-life at 0.5 μM [2]: 71 min
half-life at 0.5 μM [5]: 44 min

Cn1cc(-c2cc(C(=O)NCc3cccnc3)ccc2Oc2ccc(F)cc2F)c2cc[nH]c2c1=O [Example 128, 4-(2,4-difluorophenoxy)-3-(6-methyl-7-oxo-6,7-dihydro-1H-pyrrolo[2,3-c]pyridin-4-yl)-N-(pyridin-3-ylmethyl)benzamide]
half-life at 0.5 μM [1]: 4 min
half-life at 0.5 μM [2]: 21 min
Ki [3]: 112 nM
Ki [4]: 72.5 nM
half-life at 0.5 μM [5]: 11 min

CN(C)CCNC(=O)c1ccc(Oc2ccc(F)cc2F)c(-c2cn(C)c(=O)c3[nH]ccc23)c1 [Example 131, 4-(2,4-difluorophenoxy)-N-[2-(dimethylamino)ethyl]-3-(6-methyl-7-oxo-6,7-dihydro-1H-pyrrolo[2,3-c]pyridin-4-yl)benzamide]
half-life at 0.5 μM [1]: 83 min
half-life at 0.5 μM [2]: 71 min
Ki [3]: 60 nM
Ki [4]: 98.6 nM
half-life at 0.5 μM [5]: > 120 min

Cn1cc(-c2cc(C(=O)NCCc3c[nH]c4ccccc34)ccc2Oc2ccc(F)cc2F)c2cc[nH]c2c1=O [Example 133, 4-(2,4-difluorophenoxy)-N-[2-(1H-indol-3-yl)ethyl]-3-(6-methyl-7-oxo-6,7-dihydro-1H-pyrrolo[2,3-c]pyridin-4-yl)benzamide]
half-life at 0.5 μM [1]: 3 min
half-life at 0.5 μM [2]: 5 min
half-life at 0.5 μM [5]: 4 min

Cn1cc(-c2cc(C(=O)N3CCC(NC(=O)OC(C)(C)C)CC3)ccc2Oc2ccc(F)cc2F)c2cc[nH]c2c1=O [Example 135, tert-butyl {1-[4-(2,4-difluorophenoxy)-3-(6-methyl-7-oxo-6,7-dihydro-1H-pyrrolo[2,3-c]pyridin-4-yl)benzoyl]piperidin-4-yl}carbamate]
half-life at 0.5 μM [1]: 5 min
half-life at 0.5 μM [2]: 24 min
Ki [3]: 77.4 nM
Ki [4]: 274 nM
half-life at 0.5 μM [5]: 8 min

Cn1cc(-c2ccccc2C(=O)c2ccc(Cl)cc2)c2cc[nH]c2c1=O [Example 139, 4-[2-(4-chlorobenzoyl)phenyl]-6-methyl-1,6-dihydro-7H-pyrrolo[2,3-c]pyridin-7-one]
half-life at 0.5 μM [1]: 7 min
half-life at 0.5 μM [2]: 8 min
half-life at 0.5 μM [5]: 13 min

Cn1cc(-c2ccccc2C(O)c2ccc(Cl)cc2)c2cc[nH]c2c1=O (centres unmarked) [Example 140, 4-{2-[(4-chlorophenyl)(hydroxy)methyl]phenyl}-6-methyl-1,6-dihydro-7H-pyrrolo[2,3-c]pyridin-7-one]
half-life at 0.5 μM [1]: 18 min
half-life at 0.5 μM [2]: 13 min
half-life at 0.5 μM [5]: 19 min

Cn1cc(-c2cc(S(C)(=O)=O)ccc2Oc2cccc3nsnc23)c2cc[nH]c2c1=O [Example 171, 4-[2-(2,1,3-benzothiadiazol-4-yloxy)-5-(methylsulfonyl)phenyl]-6-methyl-1,6-dihydro-7H-pyrrolo[2,3-c]pyridin-7-one]
half-life at 0.5 μM [1]: 9 min
half-life at 0.5 μM [2]: 13 min
Ki [3]: 10.3 nM
Ki [4]: 13.8 nM
half-life at 0.5 μM [5]: 15 min

Cn1cc(-c2cc(S(C)(=O)=O)ccc2Oc2cccnc2)c2cc[nH]c2c1=O [Example 190, 6-methyl-4-[5-(methylsulfonyl)-2-(pyridin-3-yloxy)phenyl]-1,6-dihydro-7H-pyrrolo[2,3-c]pyridin-7-one]
half-life at 0.5 μM [1]: 8 min
half-life at 0.5 μM [2]: 66 min
half-life at 0.5 μM [5]: 27 min

CCS(=O)(=O)c1ccc(OC2CCC(=O)CC2)c(-c2cn(C)c(=O)c3[nH]ccc23)c1 [Example 199, 4-{5-(ethylsulfonyl)-2-[(4-oxocyclohexyl)oxy]phenyl}-6-methyl-1,6-dihydro-7H-pyrrolo[2,3-c]pyridin-7-one]
half-life at 0.5 μM [1]: 3 min
Stability in rat liver microsomes (t1/2 in minutes) ([2]; […] microsomal protein): 1 min
half-life at 0.5 μM [5]: 94 min

COc1cc(Br)ccc1-c1cn(C)c(=O)c2[nH]ccc12 [Example 241, 4-(4-bromo-2-methoxyphenyl)-6-methyl-1,6-dihydro-7H-pyrrolo[2,3-c]pyridin-7-one]
half-life at 0.5 μM [1]: 4 min
half-life at 0.5 μM [2]: 9 min
half-life at 0.5 μM [5]: 39 min

Cn1cc(-c2cc(CN3CCOCC3)ccc2OCC2CC2)c2cc[nH]c2c1=O [Example 316, 4-[2-(cyclopropylmethoxy)-5-(morpholin-4-ylmethyl)phenyl]-6-methyl-1,6-dihydro-7H-pyrrolo[2,3-c]pyridin-7-one]
half-life at 0.5 μM [1]: 12 min
half-life at 0.5 μM [2]: 3 min
half-life at 0.5 μM [5]: 47 min

CCS(=O)(=O)N(Cc1ccccn1)c1ccc(Oc2ccc(F)cc2F)c(-c2cn(C)c(=O)c3[nH]ccc23)c1 [Example 342, N-[4-(2,4-difluorophenoxy)-3-(6-methyl-7-oxo-6,7-dihydro-1H-pyrrolo[2,3-c]pyridin-4-yl)phenyl]-N-(pyridin-2-ylmethyl)ethanesulfonamide]
half-life at 0.5 μM [2]: 5 min
Ki [3]: 11.5 nM
Ki [4]: 71.9 nM
EC50 [6]: 510 nM
half-life at 0.5 μM [5]: 2 min

CCS(=O)(=O)N(CC1CC1)c1ccc(Oc2ccc(F)cc2F)c(-c2cn(C)c(=O)c3[nH]ccc23)c1 [Example 343, N-(cyclopropylmethyl)-N-[4-(2,4-difluorophenoxy)-3-(6-methyl-7-oxo-6,7-dihydro-1H-pyrrolo[2,3-c]pyridin-4-yl)phenyl]ethanesulfonamide]
half-life at 0.5 μM [2]: 7 min
Ki [3]: 4.8 nM
Ki [4]: 42.7 nM
EC50 [6]: 224 nM
half-life at 0.5 μM [5]: 2 min

Cn1cc(-c2cc(S(=O)(=O)Nc3ccc(F)cc3)ccc2OCC2CC2)c2cc[nH]c2c1=O [Example 347, 4-(cyclopropylmethoxy)-N-(4-fluorophenyl)-3-(6-methyl-7-oxo-6,7-dihydro-1H-pyrrolo[2,3-c]pyridin-4-yl)benzenesulfonamide]
half-life at 0.5 μM [2]: 6 min
Ki [3]: 4 nM
Ki [4]: 15.6 nM
EC50 [6]: 83.9 nM
half-life at 0.5 μM [5]: 4 min
